In US12599136B2, “Substituted isophthalic acid diamides and their use as herbicides” (Bayer Aktiengesellschaft, priority 2020, dated 2026):

What was measured:
Format in all cases: in vivo
Hordeum murinum [1] = assay: Pre-emergence herbicidal action against HORMU; conditions: visual score after 3 weeks vs untreated controls
How it was run: (§1)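 Pre-emergence soil-surface spray of formulated compound (WP or EC; 600 to 800 l/ha; 0.2% wetting agent) over seeds sown in sandy loam. After 3 weeks under greenhouse conditions, damage is estimated visually in percent against untreated plants.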

Cyperus esculentus [2] = assay: Post-emergence herbicidal action against CYPES; conditions: visual assessment about 3 weeks after treatment
How it was run: (§2)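 Spray, one-leaf stage: WP or EC compound in water, 600–800 l/ha, 0.2% wetting agent. Plants held about 3 weeks in the greenhouse, then visually rated in percent of kill compared with untreated controls.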

Abutilon theophrasti [3] = assay: Post-emergence herbicidal action against ABUTH
How it was run: as §2

Polygonum convolvulus [4] = assay: Pre-emergence herbicidal action against POLCO
How it was run: as §1

Viola tricolor [5] = assay: Pre-emergence herbicidal action against VIOTR
How it was run: as §1

Stellaria media [6] = assay: Pre-emergence herbicidal action against STEME
How it was run: as §1

Lolium rigidum [7] = assay: Pre-emergence herbicidal action against LOLRI
How it was run: as §1

Stellaria media [8] = assay: Post-emergence herbicidal action against STEME; conditions: visual assessment about 3 weeks after treatment
How it was run: as §2

Pharbitis purpurea [9] = assay: Pre-emergence herbicidal action against PHBPU; conditions: visual score after 3 weeks vs untreated controls
How it was run: as §1

Polygonum convolvulus [10] = assay: Post-emergence herbicidal action against POLCO; conditions: 80 g/ha, visual assessment about 3 weeks after treatment
How it was run: as §2

Amaranthus retroflexus [11] = assay: Pre-emergence herbicidal action against AMARE; conditions: visual score after 3 weeks vs untreated controls
How it was run: as §1

Abutilon theophrasti [12] = assay: Pre-emergence herbicidal action against ABUTH; conditions: Dosage column 320 g/ha (heading prints 3200 g/ha); visual score after 3 weeks vs untreated controls
How it was run: as §1

Veronica persica [13] = assay: Post-emergence herbicidal action against VERPE; conditions: visual assessment about 3 weeks after treatment
How it was run: as §2

Amaranthus retroflexus [14] = assay: Post-emergence herbicidal action against AMARE; conditions: visual assessment about 3 weeks after treatment
How it was run: as §2

Lolium rigidum [15] = assay: Post-emergence herbicidal action against LOLRI
How it was run: as §2

Echinochloa crus-galli [16] = assay: Post-emergence herbicidal action against ECHCG; conditions: visual assessment about 3 weeks after treatment
How it was run: as §2

Viola tricolor [17] = assay: Post-emergence herbicidal action against VIOTR
How it was run: as §2

Alopecurus myosuroides [18] = assay: Post-emergence herbicidal action against ALOMY
How it was run: as §2

Cyperus esculentus [19] = assay: Pre-emergence herbicidal action against CYPES; conditions: visual score after 3 weeks vs untreated controls
How it was run: as §1

Veronica persica [20] = assay: Pre-emergence herbicidal action against VERPE
How it was run: as §1

Matricaria inodora [21] = assay: Pre-emergence herbicidal action against MATIN; conditions: visual score after 3 weeks vs untreated controls
How it was run: as §1

Avena fatua [22] = assay: Post-emergence herbicidal action against AVEFA; conditions: visual assessment about 3 weeks after treatment
How it was run: as §2

Avena fatua [23] = assay: Pre-emergence herbicidal action against AVEFA; conditions: visual score after 3 weeks vs untreated controls
How it was run: as §1

Matricaria inodora [24] = assay: Post-emergence herbicidal action against MATIN; conditions: visual assessment about 3 weeks after treatment
How it was run: as §2

Echinochloa crus-galli [25] = assay: Pre-emergence herbicidal action against ECHCG; conditions: visual score after 3 weeks vs untreated controls
How it was run: as §1

Hordeum murinum [26] = assay: Post-emergence herbicidal action against HORMU
How it was run: as §2

Setaria viridis [27] = assay: Pre-emergence herbicidal action against SETVI
How it was run: as §1

Setaria viridis [28] = assay: Post-emergence herbicidal action against SETVI; conditions: visual assessment about 3 weeks after treatment
How it was run: as §2

Alopecurus myosuroides [29] = assay: Pre-emergence herbicidal action against ALOMY; conditions: visual score after 3 weeks vs untreated controls
How it was run: as §1

Pharbitis purpurea [30] = assay: Post-emergence herbicidal action against PHBPU; conditions: visual assessment about 3 weeks after treatment
How it was run: as §2

CCN(C)C(=O)c1c(C(F)(F)F)ccc(C(=O)Nc2nnnn2C)c1Cl [Example 1-124]
90%: Pre-emergence action against HORMU (Hordeum murinum [1]; 80 g/ha) | Pre-emergence action against HORMU (Hordeum murinum [1]; 320 g/ha) | Pre-emergence action against STEME (Stellaria media [6]; 20 g/ha) | Pre-emergence action against STEME (Stellaria media [6]; 80 g/ha) | Pre-emergence action against STEME (Stellaria media [6]; 320 g/ha) | Pre-emergence action against PHBPU (Pharbitis purpurea [9]; 320 g/ha) | Post-emergence action against POLCO in % (Polygonum convolvulus [10]) | Pre-emergence action against AMARE (Amaranthus retroflexus [11]; 20 g/ha) | Pre-emergence action against AMARE (Amaranthus retroflexus [11]; 80 g/ha) | Pre-emergence action against ABUTH (Abutilon theophrasti [12]) | Post-emergence action against LOLRI in % (Lolium rigidum [15]; 20 g/ha) | Post-emergence action against ALOMY (Alopecurus myosuroides [18]; 5 g/ha) | Pre-emergence action against CYPES (Cyperus esculentus [19]; 320 g/ha) | Pre-emergence action against MATIN (Matricaria inodora [21]; 80 g/ha) | Post-emergence action against HORMU in % (Hordeum murinum [26]; 20 g/ha) | Pre-emergence action against SETVI (Setaria viridis [27]; 20 g/ha) | Pre-emergence action against ALOMY (Alopecurus myosuroides [29]; 80 g/ha) | Post-emergence action against PHBPU in % (Pharbitis purpurea [30]; 20 g/ha) | Post-emergence action against PHBPU in % (Pharbitis purpurea [30]; 80 g/ha)
80%: Post-emergence action against CYPES in % (Cyperus esculentus [2]; 20 g/ha) | Post-emergence action against CYPES in % (Cyperus esculentus [2]; 80 g/ha) | Pre-emergence action against POLCO (Polygonum convolvulus [4]; 80 g/ha) | Pre-emergence action against POLCO (Polygonum convolvulus [4]; 320 g/ha) | Pre-emergence action against LOLRI (Lolium rigidum [7]; 80 g/ha) | Pre-emergence action against PHBPU (Pharbitis purpurea [9]; 80 g/ha) | Post-emergence action against VERPE in % (Veronica persica [13]; 5 g/ha) | Post-emergence action against VERPE in % (Veronica persica [13]; 20 g/ha) | Pre-emergence action against CYPES (Cyperus esculentus [19]; 80 g/ha) | Pre-emergence action against VERPE (Veronica persica [20]; 80 g/ha) | Pre-emergence action against MATIN (Matricaria inodora [21]; 20 g/ha) | Post-emergence action against AVEFA in % (Avena fatua [22]; 5 g/ha) | Pre-emergence action against AVEFA (Avena fatua [23]; 80 g/ha) | Pre-emergence action against ECHCG (Echinochloa crus-galli [25]; 20 g/ha) | Post-emergence action against HORMU in % (Hordeum murinum [26]; 5 g/ha) | Pre-emergence action against ALOMY (Alopecurus myosuroides [29]; 20 g/ha) | Post-emergence action against PHBPU in % (Pharbitis purpurea [30]; 5 g/ha)
100%: Post-emergence action against ABUTH (Abutilon theophrasti [3]; 5 g/ha) | Post-emergence action against ABUTH (Abutilon theophrasti [3]; 20 g/ha) | Post-emergence action against ABUTH (Abutilon theophrasti [3]; 80 g/ha) | Pre-emergence action against VIOTR (Viola tricolor [5]; 80 g/ha) | Pre-emergence action against VIOTR (Viola tricolor [5]; 320 g/ha) | Pre-emergence action against LOLRI (Lolium rigidum [7]; 320 g/ha) | Post-emergence action against STEME in % (Stellaria media [8]; 5 g/ha) | Post-emergence action against STEME in % (Stellaria media [8]; 20 g/ha) | Post-emergence action against STEME in % (Stellaria media [8]; 80 g/ha) | Pre-emergence action against AMARE (Amaranthus retroflexus [11]; 320 g/ha) | Post-emergence action against VERPE in % (Veronica persica [13]; 80 g/ha) | Post-emergence action against AMARE in % (Amaranthus retroflexus [14]; 5 g/ha) | Post-emergence action against AMARE in % (Amaranthus retroflexus [14]; 20 g/ha) | Post-emergence action against AMARE in % (Amaranthus retroflexus [14]; 80 g/ha) | Post-emergence action against LOLRI in % (Lolium rigidum [15]; 80 g/ha) | Post-emergence action against ECHCG in % (Echinochloa crus-galli [16]; 5 g/ha) | Post-emergence action against ECHCG in % (Echinochloa crus-galli [16]; 20 g/ha) | Post-emergence action against ECHCG in % (Echinochloa crus-galli [16]; 80 g/ha) | Post-emergence action against VIOTR in % (Viola tricolor [17]; 5 g/ha) | Post-emergence action against VIOTR in % (Viola tricolor [17]; 20 g/ha) | Post-emergence action against VIOTR in % (Viola tricolor [17]; 80 g/ha) | Post-emergence action against ALOMY (Alopecurus myosuroides [18]; 20 g/ha) | Post-emergence action against ALOMY (Alopecurus myosuroides [18]; 80 g/ha) | Pre-emergence action against VERPE (Veronica persica [20]; 320 g/ha) | Pre-emergence action against MATIN (Matricaria inodora [21]; 320 g/ha) | Post-emergence action against AVEFA in % (Avena fatua [22]; 20 g/ha) | Post-emergence action against AVEFA in % (Avena fatua [22]; 80 g/ha) | Pre-emergence action against AVEFA (Avena fatua [23]; 320 g/ha) | Post-emergence action against MATIN in % (Matricaria inodora [24]; 20 g/ha) | Post-emergence action against MATIN in % (Matricaria inodora [24]; 80 g/ha) | Pre-emergence action against ECHCG (Echinochloa crus-galli [25]; 80 g/ha) | Pre-emergence action against ECHCG (Echinochloa crus-galli [25]; 320 g/ha) | Post-emergence action against HORMU in % (Hordeum murinum [26]; 80 g/ha) | Pre-emergence action against SETVI (Setaria viridis [27]; 80 g/ha) | Pre-emergence action against SETVI (Setaria viridis [27]; 320 g/ha) | Post-emergence action against SETVI in % (Setaria viridis [28]; 5 g/ha) | Post-emergence action against SETVI in % (Setaria viridis [28]; 20 g/ha) | Post-emergence action against SETVI in % (Setaria viridis [28]; 80 g/ha) | Pre-emergence action against ALOMY (Alopecurus myosuroides [29]; 320 g/ha)
